Reference: patent US20220378773A1, “METHODS FOR TREATING LEUKEMIA AND USE OF A LEUKEMIC STEM CELL SIGNATURE TO PREDICT CLINICAL SENSITIVITY TO THERAPIES” (CELGENE CORPORATION, priority 2019, published 2022)
Entries after “also recorded” stand apart in the source; their conditions may differ.

Key:
GSPT1 [1] = molecular target: T1, GSPT1 (Homo sapiens, UniProt P15170+Q96SW2); test: In vitro GSPT1 degradation in primary AML cells (flow cytometry, MFI); assay type: cell-based
T1 construct: endogenous in cells; host or cells: primary AML patient cells (peripheral blood mononuclear cells) in short-term suspension culture
T1 sequence (P15170 whole entry): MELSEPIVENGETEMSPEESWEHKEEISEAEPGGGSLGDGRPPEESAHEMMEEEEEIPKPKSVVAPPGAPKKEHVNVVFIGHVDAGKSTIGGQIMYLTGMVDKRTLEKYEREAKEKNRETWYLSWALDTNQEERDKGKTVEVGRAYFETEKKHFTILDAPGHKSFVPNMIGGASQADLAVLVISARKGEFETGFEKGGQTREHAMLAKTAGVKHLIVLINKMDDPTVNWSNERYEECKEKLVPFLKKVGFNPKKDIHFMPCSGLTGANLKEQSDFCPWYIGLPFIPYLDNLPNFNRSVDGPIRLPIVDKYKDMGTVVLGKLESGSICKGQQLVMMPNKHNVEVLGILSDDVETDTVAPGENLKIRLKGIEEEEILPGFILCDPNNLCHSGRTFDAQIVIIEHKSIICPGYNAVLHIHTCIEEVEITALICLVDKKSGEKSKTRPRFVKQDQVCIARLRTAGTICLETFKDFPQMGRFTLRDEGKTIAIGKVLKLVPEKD
T1 sequence (Q96SW2 whole entry): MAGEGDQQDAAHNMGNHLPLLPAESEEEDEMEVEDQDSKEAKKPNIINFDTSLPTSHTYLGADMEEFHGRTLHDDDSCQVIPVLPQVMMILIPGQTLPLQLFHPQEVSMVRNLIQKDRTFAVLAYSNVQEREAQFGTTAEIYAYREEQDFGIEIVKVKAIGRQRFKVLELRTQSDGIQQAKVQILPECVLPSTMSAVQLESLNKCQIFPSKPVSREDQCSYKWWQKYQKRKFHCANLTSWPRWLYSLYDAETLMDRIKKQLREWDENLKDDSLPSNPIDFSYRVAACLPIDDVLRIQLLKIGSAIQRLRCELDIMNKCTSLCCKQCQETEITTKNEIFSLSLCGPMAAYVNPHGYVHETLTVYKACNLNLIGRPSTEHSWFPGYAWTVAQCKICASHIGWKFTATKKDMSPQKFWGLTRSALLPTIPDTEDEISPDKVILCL
T1 sequence (Q16531 whole entry partner): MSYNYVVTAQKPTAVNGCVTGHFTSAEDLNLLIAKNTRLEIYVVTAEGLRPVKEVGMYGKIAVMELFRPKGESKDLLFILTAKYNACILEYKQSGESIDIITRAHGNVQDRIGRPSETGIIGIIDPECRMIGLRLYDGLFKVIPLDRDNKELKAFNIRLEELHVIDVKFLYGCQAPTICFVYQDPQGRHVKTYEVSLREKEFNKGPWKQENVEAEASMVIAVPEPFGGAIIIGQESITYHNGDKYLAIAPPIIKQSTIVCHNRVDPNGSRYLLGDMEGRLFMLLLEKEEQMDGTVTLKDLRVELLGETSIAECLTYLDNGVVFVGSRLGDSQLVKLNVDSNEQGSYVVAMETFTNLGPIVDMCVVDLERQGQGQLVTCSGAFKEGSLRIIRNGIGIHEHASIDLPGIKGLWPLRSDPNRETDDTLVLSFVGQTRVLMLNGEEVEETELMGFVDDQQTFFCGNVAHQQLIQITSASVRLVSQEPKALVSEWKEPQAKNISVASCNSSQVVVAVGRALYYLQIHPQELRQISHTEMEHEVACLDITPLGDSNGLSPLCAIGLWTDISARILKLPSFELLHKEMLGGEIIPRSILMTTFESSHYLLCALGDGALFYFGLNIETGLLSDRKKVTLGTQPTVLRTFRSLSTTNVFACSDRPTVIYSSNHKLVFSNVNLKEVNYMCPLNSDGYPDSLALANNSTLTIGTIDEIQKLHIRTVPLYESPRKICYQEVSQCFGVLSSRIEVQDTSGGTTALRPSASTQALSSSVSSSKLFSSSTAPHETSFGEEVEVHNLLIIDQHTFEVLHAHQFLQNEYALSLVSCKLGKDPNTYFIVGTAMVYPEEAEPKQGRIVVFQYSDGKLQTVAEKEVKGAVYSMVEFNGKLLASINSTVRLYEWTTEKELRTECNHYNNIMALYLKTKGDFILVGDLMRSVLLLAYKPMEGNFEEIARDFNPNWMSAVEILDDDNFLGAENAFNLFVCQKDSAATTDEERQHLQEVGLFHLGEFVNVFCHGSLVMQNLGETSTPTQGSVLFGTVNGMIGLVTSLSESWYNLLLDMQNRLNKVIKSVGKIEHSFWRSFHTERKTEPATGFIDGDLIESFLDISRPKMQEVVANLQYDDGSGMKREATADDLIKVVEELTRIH
Procedure: 6.2.3.1. In Vitro Degradation of G1 to S Phase Transition Protein 1 (GSPT1) by Compound D and Apoptosis Assay
Preparation of Test Article Stock Solutions and Dilutions: Compound D was prepared in anhydrous DMSO to make a 1 M stock solution then further diluted to final concentrations of 3, 30, and 100 nM.
Cell Culture: Materials used for in vitro assays of AML cells included X-VIVO 10 medium supplemented with 15% BIT, and growth factors including 100 ng/mL of stem cell factor, 20 ng/mL of IL-6, 20 ng/mL of G-CSF, 20 ng/mL of IL-3, 100 ng/mL of Flt 3 ligand (each provided by Amgen, USA), 20 ng/mL of GM-CSF (R&D Systems, USA), and 50 ng/mL of thrombopoietin (Kirin Brewery, Japan).
Assay Procedure: After 4 and 24 hours of in vitro culture with DMSO or Compound D, cells were harvested for GSPT1 expression and apoptosis. Levels of GSPT1 were analyzed by flow cytometry using median fluorescence intensity (MFI) and normalized against DMSO controls. Apoptosis was also analyzed by flow cytometry and measured as percentage of cells which were positive for cleaved caspase 3/7.
Viably frozen primary leukemia cells were thawed and plated in suspension culture in the Iscove's Modified Dulbecco's Medium plus 15% BIT Serum Substitute (Stem Cell Technology, Canada), supplemented with multiple human growth factors. Compound D was added to the culture at indicated concentrations.
For GSPT1 expression, intracellular flow cytometry (FACS) was performed at 24 hours in culture by staining cells with GSPT1 conjugated with Alexa Fluor 647. For apoptosis, cells were harvested at 24 hours in culture and stained with Annexin V-PE and 7-aminoactinomycin D (7AAD) (BD Biosciences, USA).

[2] = tested on: leukemic stem cells (LSCs); test: Secondary transplantation without limiting dilution; assay type: in vivo, NOD/SCID mice
Procedure: For secondary transplant NOD/SCID mice were sublethally irradiated (275 cGy) and pretreated with anti-CD122 antibody (200 μg/mouse) to deplete residual host natural killer cells. On the day of transplantation, viably frozen cells harvested from the vehicle- or Compound D-treated primary mice were thawed, counted, mouse-cell depleted (Mouse Cell Depletion Kit, Miltenyi Biotec, USA), and transplanted intrafemorally into the pretreated secondary mice at limiting doses described above. For secondary transplant without LDA, thawed cells were not depleted of mouse cells before transplantation. At 12 weeks post secondary transplantation, mice were euthanized, and bone marrow was collected and analyzed.
To determine if quiescent LSCs are resistant to Compound D, secondary transplantation of AML cells of high responders was performed. High responders were identified as samples in which leukemia cells were almost undetectable in the primary mouse bone marrow following Compound D treatment. If rare quiescent LSCs are maintained in the residual leukemia cells following Compound D dosing, then those quiescent LSCs may become active and repopulate secondary mice after undergoing serial transplantations. Four LSC17 high samples that had AML blasts eradicated by Compound D treatment were selected for secondary transplantation (see Table 9) by injecting total combined bone marrow cells collected from 5 primary mice treated with either vehicle or Compound D into 5 secondary mice. In this way cells collected from one primary mouse were injected into one secondary mouse without any cell dose dilution or losing any residual cells. […] Cells from AML Patient 150238 harvested from vehicle-treated primary mice repopulated only one of 5 secondary mice.

GSPT1 [3] = molecular target: T1, GSPT1; test: In vivo GSPT1 expression in xenograft AML model (intracellular FACS); design: species or system mice
Procedure: After 4 weeks of transplantation with AML cells, mice were treated with Compound D at 2.5 mg/kg twice a day for 3 doses totally. Four hours after the last treatment, cells were harvested from both injected RF and non-injected BM of each mouse and were stained with CD45-FITC (BD Biosciences, USA), fixed and permeabilized. Cells were then stained with GSPT1-Alexa Fluor 647 for intracellular FACS to detect the expression of GSPT1 in engrafted leukemic cells.

[4] = tested on: AML graft (CD34, CD15, CD14, CD11b); test: Cell surface marker phenotype of AML graft after treatment; assay type: in vivo, NOD/SCID mice
Excerpt: After treatment finished, cells were harvested from both injected right femur (RF) and non-injected bone marrow (BM, including left femur, 2 tibias), and stained with human antibodies to assess the engraftment levels of AML. Antibodies used for staining included: Mouse anti-human CD45-APC, CD15-FITC, CD34-APC7, CD38-PC7 (BD Biosciences, USA), CD14-PE, CD33-PC5 (Beckman Coulter, USA), CD19-V450, CD19-AF700, CD11b-APC7, CD34-BV421 (BD Biosciences, USA), and propidium iodide (PI; Invitrogen, USA).
With the observation that Compound D has dramatic effect against AML in mice, the question of whether Compound D targets primitive leukemic cells and induces differentiation was investigated next because AML cells are immature blasts with differentiation and maturation blockage in patients. Samples that were focused on were the samples that still had clear residual leukemia cells in the mice following Compound D treatment. […] The majority of cells harvested from the mice transplanted with patient sample 120093 were CD34+ primitive cells lacking in CD15 expression. […] CD11b is also a myeloid differentiation marker and was increased on patient 150250 grafted cells in parallel with increased expression of another myeloid differentiation marker CD15. […] The changes of CD15, CD14 and CD34 positive populations are summarized in FIGS. 12C-12E and 3 different patterns after Compound D treatment are apparent: increase, decrease, or no change of the populations in AML, graft. The samples with reduction of CD34+ primitive cells and increase of CD15+ and/or CD14+ cells are the samples responding well to Compound D (such as patient samples 110555, 110500, and 120093). […] Secondary transplantation may be performed to determine whether Compound D targeted the LSCs with self-renewal capacity.

## O=C1CCC(N2Cc3cc(CNC(=O)C(F)(F)c4ccc(Cl)cc4)ccc3C2=O)C(=O)N1 (stereo not drawn) [Compound D, 2-(4-chlorophenyl)-N-((2-(2,6-dioxopiperidin-3-yl)-1-oxoisoindolin-5-yl)methyl)-2,2-difluoroacetamide]
GSPT1 [1]; 100 nM, 24 hours
  GSPT1 degradation, high vs low LSC17 score samples: samples with high LSC17 scores had significantly higher GSPT1 degradation
GSPT1 [1]; 3, 30, 100 nM
  effect on reduction of GSPT1 levels, concentration dependence: concentration dependent
GSPT1 [1]; Section 6.3 samples, 24 hours exposure
  GSPT1 expression in AML cells: decreased GSPT1 expression
GSPT1 [1]; ten primary AML patient samples, 4 and 24 hours, vs control
  GSPT1 levels in AML cells: reduced GSPT1 levels as early as 4 hours post treatment
[2]; AML 0590 and AML 110102, cells from Compound D-treated primary mice
  repopulation of secondary mice: did not repopulate the secondary mice
[2]; Patient 110625
  LSC Status in Secondary Mice Injected with Compound D Treated Primary Cells: repopulated the bone marrow of one secondary mouse; also recorded: LSC in BM
[2]; Patient 110625, cells from Compound D-treated primary mice
  No. mice with LSC engrafted/No. injected mice in the group: 1/5 (in BM
[2]; Patient 130311
  LSC Status in Secondary Mice Injected with Compound D Treated Primary Cells: did not proliferate/repopulate any of the secondary mice; also recorded: not engrafted
[2]; Patient 130311, cells from Compound D-treated primary mice
  No. mice with LSC engrafted/No. injected mice in the group: 0/4
[2]; Patient 130826
  LSC Status in Secondary Mice Injected with Compound D Treated Primary Cells: did not proliferate/repopulate any of the secondary mice; also recorded: not engrafted
[2]; Patient 130826, cells from Compound D-treated primary mice
  No. mice with LSC engrafted/No. injected mice in the group: 0/5
[2]; Patient 150238
  LSC Status in Secondary Mice Injected with Compound D Treated Primary Cells: did not repopulate any secondary mice; also recorded: no LSC
[2]; Patient 150238, cells from Compound D-treated primary mice
  No. mice with LSC engrafted/No. injected mice in the group: 0/5
GSPT1 [3]; 2.5 mg/kg twice a day, 3 doses, 17 samples
  levels of GSPT1 in engrafted leukemia cells: decreased in RF or BM, or in both RF and BM in the majority of 17 samples tested
GSPT1 [3]; Pt120287 and 110555
  GSPT1 reduction: clear GSPT1 reduction in both RF and BM
GSPT1 [3]; Pt130607 and 150250
  GSPT1 reduction: did not show dramatic GSPT1 reduction
[4]; 3 representative samples
  expression of myeloid differentiation marker CD15: clear increased expression
[4]; Patient 130826
  CD11b+ leukemia cells: decreased CD11b+ leukemia cells
[4]; graft of patient 120287
  expression of monocytic cell marker CD14: induced expression of monocytic cell marker CD14
[4]; patient 150250
  CD11b on grafted cells: increased
[4]; patient sample 100474
  CD14+ cells: only eliminated CD14+ cells
[4]; patient sample 120093
  CD15 expression: induced CD15 expression
  CD34+ cell population: reduced CD34+ cell population
[4]; patient samples 100348 and 130826
  CD34+ cells in the graft: reduced CD34+ cells
